{"source": "PubChem BioAssay AID790", "about": "(SRMLSC, 2007)", "note": "The source made the active and inactive calls. No rule for the calls is given here."}
{"tested_on": "not listed separately", "assay": "vps1Δ single mutant yeast growth suppression – S. cerevisiae, background strain comparison, dose response (AID 790)", "settings": "S. cerevisiae vps1Δ mutant growth inhibition; at 25 µM (top of the series)"}
{"compound": "Cc1cccc(N2CCN(CC(=O)Nc3nccs3)CC2)c1C", "growth inhibition": "31.3% (inactive)"}
{"compound": "Cc1nn(Cc2cccc(C(=O)NC(C)c3ccc(C(C)(C)C)cc3)c2)c(C)c1[N+](=O)[O-]", "note": "(stereo unspecified)", "growth inhibition": "23.6% (inactive)"}
{"tested_on": "not listed separately", "assay": "vps1Δ single mutant yeast growth suppression – S. cerevisiae, background strain comparison, dose response (AID 790)", "settings": "S. cerevisiae vps1Δ mutant growth inhibition; measured here: background strain growth inhibition", "units": {"IC50": "µM"}}
{"compound": "Cc1ccc(S(=O)(=O)NC(CC(C)C)C(=O)Oc2ccc3c4c(c(=O)oc3c2)CCC4)cc1", "note": "(stereo unspecified)", "IC50": "> 10"}
{"compound": "OC(c1ccc(Cl)cc1Cl)C(Cc1cccnc1)n1cncn1", "note": "(stereo unspecified)", "IC50": "> 10"}
{"compound": "CCCCCOc1ccc(Cl)cc1CN1CCOCC1", "IC50": "> 10"}
{"compound": "Nc1ccc(Oc2ccc3nc(-c4ccccc4)c(-c4ccccc4)nc3c2)cc1", "IC50": 1.21}
{"compound": "O=C1c2cccc3c([N+](=O)[O-])ccc(c23)C(=O)N1c1ccc(Cl)cn1", "IC50": 6.08}
{"compound": "CCOC(=O)c1c(-n2c(C)cc(C=C3C(=O)NC(=S)NC3=O)c2C)sc2c1CCCC2", "IC50": 11.5}
{"compound": "C=C(C)C1CC=C(CN2CC(C)OC(C)C2)CC1", "note": "(stereo unspecified)", "IC50": "> 10"}
{"compound": "Cc1cccc(N2CCN(CC(=O)Nc3nccs3)CC2)c1C", "IC50": "> 10"}
{"compound": "N[C@@H](Cc1c[nH]c2ccccc12)c1nnc(SCc2ccc(Cl)cc2)o1", "IC50": 20.4}
{"compound": "OC(COCc1ccc(Cl)cc1)CN1CC=C(c2ccccc2)CC1", "note": "(stereo unspecified)", "IC50": 20.8}
{"compound": "CCCCC(c1nnnn1Cc1ccco1)N1CCN(c2nc3ccccc3s2)CC1", "note": "(stereo unspecified)", "IC50": 3.9}
{"compound": "Cc1nn(Cc2cccc(C(=O)NC(C)c3ccc(C(C)(C)C)cc3)c2)c(C)c1[N+](=O)[O-]", "note": "(stereo unspecified)", "IC50": "> 10"}
{"compound": "Cc1nc(NC(=O)c2ccccc2)sc1-c1csc(Nc2ccc(F)cc2)n1", "IC50": "> 10"}
{"tested_on": "S. cerevisiae vps1Δ mutant growth inhibition", "assay": "vps1Δ single mutant yeast growth suppression – S. cerevisiae, background strain comparison, dose response (AID 790)", "settings": "not given"}
{"compound": "Cc1ccc(S(=O)(=O)NC(CC(C)C)C(=O)Oc2ccc3c4c(c(=O)oc3c2)CCC4)cc1", "note": "(stereo unspecified)", "IC50": "> 10 µM (inactive)"}
{"compound": "CCCCCOc1ccc(Cl)cc1CN1CCOCC1", "IC50": "> 10 µM (inactive)"}
{"compound": "Nc1ccc(Oc2ccc3nc(-c4ccccc4)c(-c4ccccc4)nc3c2)cc1", "IC50": "2.91 µM (inactive)"}
{"compound": "O=C1c2cccc3c([N+](=O)[O-])ccc(c23)C(=O)N1c1ccc(Cl)cn1", "IC50": "8.74 µM (inactive)"}
{"compound": "O=C(OCn1ncc(Br)c(Br)c1=O)c1c(F)cccc1F", "IC50": "16.2 µM"}
{"compound": "CCOc1ccc(NC(=O)N(C2CCCCC2)C(C)c2cccnc2)cc1", "note": "(stereo unspecified)", "IC50": "15.6 µM"}
{"compound": "O=C1C=C(c2ccccc2)C(=O)N1Nc1ccccc1", "IC50": "22.5 µM"}
{"compound": "O=C(Nc1nnc(-c2ccc3c(c2)CCCC3)o1)c1ccccc1", "IC50": "0.8 µM"}
{"compound": "O=S1(=O)C=C(Sc2nc3ccccc3s2)c2ccccc21", "IC50": "> 10 µM (inactive)"}
{"compound": "O=C(CN1CCN(c2ccccn2)CC1)Nc1ccc(Oc2ccccc2)cc1", "IC50": "> 10 µM (inactive)"}
{"compound": "O=C(NCC1COc2ccccc2O1)c1ccc(Cl)cc1", "note": "(stereo unspecified)", "IC50": "3.31 µM"}
{"compound": "CC1CCC(C(C)C)C(OCC(O)CN2CCN(Cc3ccccc3)CC2)C1", "note": "(stereo unspecified)", "IC50": "> 10 µM (inactive)"}
{"compound": "Cc1ccc(C(=O)Nc2ccc(Cc3ccncc3)cc2)cc1[N+](=O)[O-]", "IC50": "23.6 µM"}
{"compound": "CC(C)c1ccc(C(=O)CSc2n[nH]c(-c3ccncc3)n2)cc1", "IC50": "> 10 µM (inactive)"}
{"compound": "Cc1[nH]nc(N=CC2=C(O)CC(C)(C)CC2=O)c1-c1ccc(Cl)cc1", "IC50": "> 10 µM (inactive)"}
{"compound": "N=c1c2c(-c3ccccc3)c(-c3ccccc3)n(Cc3ccco3)c2ncn1Cc1ccccc1", "IC50": "> 10 µM (inactive)"}
{"compound": "CC(c1nnc(SCn2nnc3ccccc3c2=O)n1-c1ccc(Cl)cc1)N(C)C", "note": "(stereo unspecified)", "IC50": "5.55 µM"}
{"compound": "O=[N+]([O-])c1cc(Cl)cc(/C=N\\Nc2ccccn2)c1O", "IC50": "3.42 µM"}
{"compound": "CC1CCN(S(=O)(=O)c2ccc(NC(=O)CCN3C(=O)c4ccccc4C3=O)cc2)CC1", "IC50": "> 10 µM (inactive)"}
{"compound": "O=S1(=O)C=C(Sc2nnc(-c3ccccc3)o2)c2ccccc21", "IC50": "24.2 µM"}
{"compound": "COc1ccc(OCCSc2nnc3sc4ccccc4n23)cc1", "IC50": "> 10 µM (inactive)"}
{"compound": "CC(Sc1ccsc1[N+](=O)[O-])C(=O)NCCc1ccc(Cl)cc1", "note": "(stereo unspecified)", "IC50": "> 10 µM (inactive)"}
{"compound": "CCCCCCOc1ccc(CN2CCN(CCO)CC2)cc1", "IC50": "> 10 µM (inactive)"}
{"compound": "CC12CCC(c3c(C(=O)Nc4nccs4)nn(-c4ccccc4)c31)C2(C)C", "note": "(stereo unspecified)", "IC50": "> 10 µM (inactive)"}
{"compound": "CCOc1nc(SCCOc2ccccc2)nc(N(C)C)n1", "IC50": "> 10 µM (inactive)"}
{"compound": "N#Cc1ccccc1Cn1cc(C(=O)c2cccs2)c2ccccc21", "IC50": "> 10 µM (inactive)"}
{"compound": "O=C(NCC(c1cccnc1)N1CCN(c2ccc(F)cc2)CC1)OCc1ccccc1", "note": "(stereo unspecified)", "IC50": "22.4 µM"}
{"compound": "O=S(=O)(Cc1ccccc1Cl)N1CCN(Cc2ccc3c(c2)OCO3)CC1", "IC50": "> 10 µM (inactive)"}
{"compound": "O=C(C1CCCN(S(=O)(=O)c2ccc(Cl)cc2)C1)N(Cc1cccs1)C1CC1", "note": "(stereo unspecified)", "IC50": "9.94 µM"}
{"compound": "O=C(OCn1ncc(Br)c(Br)c1=O)c1ccccc1Cl", "IC50": "6.69 µM"}
{"compound": "O=C(Nc1nnc(-c2cccs2)o1)c1cccc(C(F)(F)F)c1", "IC50": "1.67 µM (inactive)"}
